We go through 1 compound from PMC3004258, “Structure of the inhibitor complex of old yellow enzyme from Trypanosoma cruzi” (Journal of Synchrotron Radiation, 2010).

The experiment addresses T1, TcOYE (old yellow enzyme from Trypanosoma cruzi; PGF2alpha synthase) (Trypanosoma cruzi, UniProt Q8I6L9).
T1 construct: gene TcPGFS; recombinant, overexpressed in E. coli and purified; 2 molecules per asymmetric unit; residues up to at least 379
T1 sequence (Q8I6L9 1-379): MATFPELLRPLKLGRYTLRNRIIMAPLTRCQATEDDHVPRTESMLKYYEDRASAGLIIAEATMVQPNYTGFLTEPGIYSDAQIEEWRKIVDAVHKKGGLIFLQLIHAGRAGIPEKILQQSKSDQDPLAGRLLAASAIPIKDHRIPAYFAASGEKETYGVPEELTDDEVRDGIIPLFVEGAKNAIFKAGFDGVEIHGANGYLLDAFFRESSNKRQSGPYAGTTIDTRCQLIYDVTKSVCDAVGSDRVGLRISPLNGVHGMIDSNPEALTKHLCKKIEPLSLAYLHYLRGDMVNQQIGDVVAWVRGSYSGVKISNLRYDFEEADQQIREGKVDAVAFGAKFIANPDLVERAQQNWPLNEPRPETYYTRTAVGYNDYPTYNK
Kind of experiment: X-ray crystallography, […] Å. The class given is binding. Conditions: TcOYE/FMN binary complex; prosthetic group at C-terminal ends of barrel strands.

Molecules are shown by their SMILES.

For the compound `Cc1cc2nc3c(=O)[nH]c(=O)nc-3n(C[C@H](O)[C@H](O)[C@H](O)COP(=O)(O)O)c2cc1C` [FMN], the “X-ray crystallography, 1.7 Å” value is recorded as “The structure of TcOYE/FMN binary complex was determined by molecular replacement methods”.
